The source of these data is patent publication US11046699B2, “Pyrazolo-pyrimidin-amino-cycloalkyl compounds and their therapeutic uses” (RAPT THERAPEUTICS, INC., priority 2018, dated 2021).

Read-outs that look alike come from different tables or passages of the source.

In the assay the target is GCN2 (Homo sapiens, UniProt Q9P2K8). Description: GCN2 enzymatic endpoint assay: phosphorylation of GFP-eIF2α measured by TR-FRET (Lanthascreen). Type of assay: biochemical. Put shortly: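 Endpoint kinase reaction with 2 μM ATP and 80 nM GFP-labelled eIF2α substrate, run at room temperature for 90 min, then stopped with EDTA. Phospho-substrate detected by terbium-antibody TR-FRET, activity taken as the 520/495 nm emission ratio.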

Where [1] appears, read: tested as described in Example 77, compound and/or hydrochloride, dihydrochloride or trifluoroacetic acid salt, read-out: IC 50 Activity.
Setting [2] is: GCN2 biochemical IC50, 4 nM GCN2, 2 μM ATP, 80 nM GFP-eIF2α, 90 min RT, read-out: GCN2 activity.

GCN2, sequence (Q9P2K8 whole entry): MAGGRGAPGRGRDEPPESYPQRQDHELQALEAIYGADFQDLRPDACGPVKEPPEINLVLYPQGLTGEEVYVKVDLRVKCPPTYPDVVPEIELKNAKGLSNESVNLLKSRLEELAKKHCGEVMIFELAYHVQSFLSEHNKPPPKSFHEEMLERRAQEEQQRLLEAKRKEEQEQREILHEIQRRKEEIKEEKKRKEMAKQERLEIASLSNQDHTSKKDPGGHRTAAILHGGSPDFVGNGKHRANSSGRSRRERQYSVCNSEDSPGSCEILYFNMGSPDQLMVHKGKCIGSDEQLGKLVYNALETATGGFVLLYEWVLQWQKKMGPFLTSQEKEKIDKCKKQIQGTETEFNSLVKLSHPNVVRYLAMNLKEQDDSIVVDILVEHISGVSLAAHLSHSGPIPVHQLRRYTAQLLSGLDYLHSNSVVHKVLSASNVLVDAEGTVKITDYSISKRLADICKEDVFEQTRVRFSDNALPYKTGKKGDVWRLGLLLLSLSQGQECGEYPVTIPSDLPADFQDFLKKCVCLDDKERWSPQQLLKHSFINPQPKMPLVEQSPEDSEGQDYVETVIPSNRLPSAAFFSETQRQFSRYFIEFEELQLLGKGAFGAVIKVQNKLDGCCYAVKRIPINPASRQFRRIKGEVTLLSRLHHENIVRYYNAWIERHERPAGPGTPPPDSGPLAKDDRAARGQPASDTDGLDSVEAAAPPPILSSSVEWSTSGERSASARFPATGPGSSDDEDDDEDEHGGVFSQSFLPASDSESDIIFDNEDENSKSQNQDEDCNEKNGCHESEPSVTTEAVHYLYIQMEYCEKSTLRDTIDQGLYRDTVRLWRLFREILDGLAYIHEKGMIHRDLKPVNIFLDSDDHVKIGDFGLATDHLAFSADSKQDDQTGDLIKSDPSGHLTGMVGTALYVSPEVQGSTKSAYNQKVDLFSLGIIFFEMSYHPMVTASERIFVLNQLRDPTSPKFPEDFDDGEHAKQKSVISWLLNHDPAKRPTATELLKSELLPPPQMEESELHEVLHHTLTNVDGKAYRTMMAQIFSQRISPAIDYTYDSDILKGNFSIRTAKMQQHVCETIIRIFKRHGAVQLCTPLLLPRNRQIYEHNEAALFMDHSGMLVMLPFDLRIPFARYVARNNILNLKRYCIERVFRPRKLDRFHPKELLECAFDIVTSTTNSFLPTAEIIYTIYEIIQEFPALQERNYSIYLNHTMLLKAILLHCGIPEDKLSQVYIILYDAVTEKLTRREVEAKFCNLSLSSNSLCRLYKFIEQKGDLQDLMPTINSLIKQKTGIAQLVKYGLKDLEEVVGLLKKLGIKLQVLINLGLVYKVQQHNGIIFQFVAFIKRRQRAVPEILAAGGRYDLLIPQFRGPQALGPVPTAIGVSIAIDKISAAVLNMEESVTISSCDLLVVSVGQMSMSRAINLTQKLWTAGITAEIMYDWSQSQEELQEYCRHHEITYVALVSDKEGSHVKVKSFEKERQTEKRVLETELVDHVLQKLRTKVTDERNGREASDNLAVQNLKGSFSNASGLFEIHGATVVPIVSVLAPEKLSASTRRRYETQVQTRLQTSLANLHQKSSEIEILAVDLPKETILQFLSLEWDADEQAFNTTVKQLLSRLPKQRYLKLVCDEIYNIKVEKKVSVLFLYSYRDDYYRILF

For `CNC(=O)[C@]1(C)CC[C@@H](Nc2ncc3c(Br)nn(-c4cc(CCNC(=O)OC)c5ncccc5c4)c3n2)C1` [methyl N-[2-[6-[3-bromo-6-[[(1R,3R)-3-methyl-3-(methylcarbamoyl)cyclopentyl]amino]pyrazolo[3,4-d]pyrimidin-1-yl]-8-quinolyl]ethyl]carbamate], under setting [1], the IC50 lay in the range of 25 to 200 nM.
On to `CNC(=O)[C@]1(CC#N)CC[C@@H](Nc2ncc3c(Br)nn(-c4cc(F)c5ncccc5c4)c3n2)C1` (single isomer, unassigned) [Example 19], for which the IC50 under setting [2] lay within 25 to 200 nM.
Take `CNC(=O)[C@@H]1CC[C@@H](Nc2ncc3c(Br)nn(-c4cc(C(F)F)c5ncccc5c4)c3n2)C1` [(1R,3R)-3-((3-bromo-1-(8-(difluoromethyl)quinolin-6-yl)-1H-pyrazolo[3,4-d]pyrimidin-6-yl)amino)-N-methylcyclopentane-1-carboxamide]: under setting [1], the IC50 lay in the range of 25 to 200 nM.
The same measure, in the same setting: to `CNC(=O)[C@]1(C)CC[C@@H](Nc2ncc3c(Br)nn(-c4ccc5c(c4)CN(C(=O)C4CN(C(=O)C(F)(F)F)C4)CC5)c3n2)C1` [(1R,3R)-3-[[3-bromo-1-[2-[1-(2,2,2-trifluoroacetyl)azetidine-3-carbonyl]-3,4-dihydro-1H-isoquinolin-7-yl]pyrazolo[3,4-d]pyrimidin-6-yl]amino]-N,1-dimethyl-cyclopentanecarboxamide] belongs 25 to 200 nM; to `CNC(=O)C1(C)CC[C@@H](Nc2ncc3c(Br)nn(-c4ccc5nc(C(C)(C)O)ccc5c4)c3n2)C1` (stereo partly drawn) [(3R)-3-[[3-bromo-1-[2-(1-hydroxy-1-methyl-ethyl)-6-quinolyl]pyrazolo[3,4-d]pyrimidin-6-yl]amino]-N,1-dimethyl-cyclopentane-carboxamide], 25 to 200 nM.
Still for that read-out and setting: then `CNC(=O)[C@]1(C)CC[C@@H](Nc2ncc3c(Br)nn(-c4cc(Cl)cc([C@H](C)N(C)C)c4)c3n2)C1`, with 25 to 200 nM.
In the case of `CNC(=O)[C@]1(C)CC[C@@H](Nc2ncc3c(Br)nn(-c4ccc5nc(N6CCC6)ncc5c4)c3n2)C1` [Example 73, (1R,3R)-3-((1-(2-(azetidin-1-yl)quinazolin-6-yl)-3-bromo-1H-pyrazolo[3,4-d]pyrimidin-6-yl)amino)-N,1-dimethylcyclopentane-1-carboxamide], the IC50 under setting [2] lay within 25 to 200 nM.
In the case of `CNC(=O)[C@]1(C)CC[C@@H](Nc2ncc3c(Br)nn(-c4ccc5c(c4)CCC(=O)N5CCO)c3n2)C1` [(1R,3R)-3-[[3-bromo-1-[1-(2-hydroxy-ethyl)-2-oxo-3,4-dihydroquinolin-6-yl]pyrazolo[3,4-d]pyrimidin-6-yl]amino]-N,1-dimethyl-cyclopentanecarboxamide], the IC50 under setting [1] was 25 to 200 nM.
Same read-out and setting: to `CCN(CC)C(=O)C1(C)CC[C@@H](Nc2ncc3c(Br)nn(-c4cc(F)c5ncccc5c4)c3n2)C1` (stereo partly drawn) [(3R)-3-[[3-bromo-1-(8-fluoro-6-quinolyl)pyrazolo[3,4-d]pyrimidin-6-yl]amino]-N,N-diethyl-1-methyl-cyclopentanecarboxamide] belongs 25 to 200 nM; to `COCCNC(=O)[C@@H]1CC[C@@H](Nc2ncc3c(Br)nn(-c4ccc5ccncc5c4)c3n2)C1` [(1R,3R)-3-((3-bromo-1-(isoquinolin-7-yl)-1H-pyrazolo[3,4-d]pyrimidin-6-yl)amino)-N-(2-methoxyethyl)cyclopentane-1-carboxamide], 25 to 200 nM; to `CNC(=O)C1(C)CC[C@@H](Nc2ncc3c(Br)nn(-c4ccc(-c5cnn(CCOC)c5)cc4)c3n2)C1` (stereo partly drawn) [(3R)-3-[[3-bromo-1-[4-[1-(2-methoxyethyl)pyrazol-4-yl]phenyl]pyrazolo[3,4-d]pyrimidin-6-yl]amino]-N,1-dimethyl-cyclopentanecarboxamide], 25 to 200 nM.
Still for that read-out and setting: then `CNC(=O)[C@]1(C)CC[C@@H](Nc2ncc3c(Br)nn(-c4cc(Cl)cc(OCC(C)O)c4)c3n2)C1` (stereo partly drawn) [(1R,3R)-3-[[3-bromo-1-[3-chloro-5-(2-hydroxypropoxy)phenyl]pyrazolo[3,4-d]pyrimidin-6-yl]amino]-N,1-dimethyl-cyclopentanecarboxamide], with 25 to 200 nM.
Same read-out and setting: to `CNC(=O)[C@]1(C)CC[C@@H](Nc2ncc3c(Br)nn(-c4ccc5ncc(NC(=O)C6CNC6)cc5c4)c3n2)C1` [N-[6-[3-bromo-6-[[(1R,3R)-3-methyl-3-(methylcarbamoyl)cyclopentyl]amino]pyrazolo[3,4-d]pyrimidin-1-yl]-3-quinolyl]azetidine-3-carboxamide] belongs less than 25 nM.
Turning to `CNC(=O)[C@@H]1CC[C@@H](Nc2ncc3c(Br)nn(-c4ccc(-c5nnc(C)o5)cc4)c3n2)C1` [(1R,3R)-3-[[3-bromo-1-[4-(5-methyl-1,3,4-oxadiazol-2-yl)phenyl]pyrazolo[3,4-d]pyrimidin-6-yl]amino]-N-methyl-cyclopentanecarboxamide], under setting [1], the IC50 was in the range of 25 to 200 nM.
Still for that read-out and setting: then `N#Cc1cc(-n2nc(Br)c3cnc(N[C@@H]4CC[C@@H](C(=O)NC5CCC(C#N)C5)C4)nc32)cc2cccnc12` (stereo partly drawn), with 25 to 200 nM; and `CNC(=O)[C@]1(C)CC[C@@H](Nc2ncc3c(Br)nn(-c4ccc(-c5nnc(C)s5)c(CC(C)O)c4)c3n2)C1` (stereo partly drawn) [(1R,3R)-3-[[3-bromo-1-[3-(2-hydroxypropyl)-4-(5-methyl-1,3,4-thiadiazol-2-yl)phenyl]pyrazolo[3,4-d]pyrimidin-6-yl]amino]-N,1-dimethyl-cyclopentanecarboxamide], with 25 to 200 nM; and `COC1(C)CN(C(=O)[C@]2(C)CC[C@@H](Nc3ncc4c(Br)nn(-c5cc(F)c6ncccc6c5)c4n3)C2)C1` [[(1R,3R)-3-[[3-bromo-1-(8-fluoro-6-quinolyl)pyrazolo[3,4-d]pyrimidin-6-yl]amino]-1-methyl-cyclopentyl]-(3-methoxy-3-methyl-azetidin-1-yl)methanone], with less than 25 nM.
The same measure, in the same setting: to `CNC(=O)[C@]1(C)CC[C@@H](Nc2ncc3c(Br)nn(-c4cc(C#N)cc(CNS(C)(=O)=O)c4)c3n2)C1` belongs 25 to 200 nM; to `CNC(=O)[C@]1(C)CC[C@@H](Nc2ncc3c(Br)nn(-c4cc(CNCC(F)F)c5ncccc5c4)c3n2)C1` [(1R,3R)-3-[[3-bromo-1-[8-[(2,2-difluoroethylamino)methyl]-6-quinolyl]pyrazolo[3,4-d]pyrimidin-6-yl]amino]-N,1-dimethyl-cyclopentanecarboxamide], 25 to 200 nM.
The same measure, in the same setting: then `Cc1nnc(-c2ccc(-n3nc(Br)c4cnc(NC5CC(O)C5)nc43)cc2)s1` (stereo not drawn) [3-[[3-bromo-1-[4-(5-methyl-1,3,4-thiadiazol-2-yl)phenyl]pyrazolo[3,4-d]pyrimidin-6-yl]amino]cyclobutanol], with 25 to 200 nM; and `O=C(N[C@@H]1CNC[C@H]1F)[C@@H]1CC[C@@H](Nc2ncc3c(Br)nn(-c4cc(F)c5ncccc5c4)c3n2)C1` [(1R,3R)-3-((3-bromo-1-(8-fluoroquinolin-6-yl)-1H-pyrazolo[3,4-d]pyrimidin-6-yl)amino)-N-((3R,4R)-4-fluoropyrrolidin-3-yl)cyclo-pentane-1-carboxamide], with 25 to 200 nM; and `CNC(=O)[C@]1(C)CC[C@@H](Nc2ncc3c(Br)nn(-c4ccc5c(c4)CS(=O)(=O)C5)c3n2)C1` [(1R,3R)-3-[[3-bromo-1-(2,2-dioxo-1,3-dihydro-2-benzothiophen-5-yl)pyrazolo[3,4-d]pyrimidin-6-yl]amino]-N,1-dimethyl-cyclopentanecarboxamide], with 25 to 200 nM.
On to `CNC(=O)[C@]1(C)CC[C@@H](Nc2ncc3c(Br)nn(-c4ccc(-c5cnc(C)o5)cc4)c3n2)C1` [(1R,3R)-3-[[3-bromo-1-[4-(2-methyloxazol-5-yl)phenyl]pyrazolo[3,4-d]pyrimidin-6-yl]amino]-N,1-dimethyl-cyclopentane-carboxamide], for which the IC50 under setting [1] was in the range of 25 to 200 nM.
With `CNC(=O)[C@]1(C)CC[C@@H](Nc2ncc3c(Br)nn(-c4cc(Cl)cc(C#N)c4)c3n2)C1` [(1R,3R)-3-[[3-bromo-1-(3-chloro-5-cyano-phenyl)pyrazolo[3,4-d]pyrimidin-6-yl]amino]-N,1-dimethyl-cyclopentanecarboxamide], the IC50 under setting [1] is 25 to 200 nM.
Still for that read-out and setting: then `CNC(=O)[C@]1(C)CC[C@@H](Nc2ncc3c(Br)nn(-c4ccc(-c5nnc(C(=O)N6CCNCC6)s5)cc4)c3n2)C1` [(1R,3R)-3-[[3-bromo-1-[4-[5-(piperazine-1-carbonyl)-1,3,4-thiadiazol-2-yl]phenyl]pyrazolo[3,4-d]pyrimidin-6-yl]amino]-N,1-dimethyl-cyclopentanecarboxamide], with 25 to 200 nM.
The same measure, in the same setting: to `N#Cc1cc(-n2nc(Br)c3cnc(N[C@@H]4CC[C@@H](C(=O)N[C@@H]5CCNC5)C4)nc32)cc2cccnc12` [(1R,3R)-3-((3-bromo-1-(8-cyanoquinolin-6-yl)-1H-pyrazolo[3,4-d]pyrimidin-6-yl)amino)-N-((R)-pyrrolidin-3-yl)cyclopentane-1-carboxamide] belongs less than 25 nM; to `CNC(=O)[C@@]1(C)CC[C@@H](Nc2ncc3c(Br)nn(-c4ccc5nc(OC)ccc5c4)c3n2)C1` [(1S,3R)-3-[[3-bromo-1-(2-methoxy-6-quinolyl)pyrazolo[3,4-d]pyrimidin-6-yl]amino]-N,1-dimethyl-cyclopentane-carboxamide], less than 25 nM.
On the same count and under the same terms, then `CC1(NC(=O)[C@@H]2CC[C@@H](Nc3ncc4c(Br)nn(-c5ccc6ncccc6c5)c4n3)C2)CCOC1` (stereo partly drawn) [(1R,3R)-3-((3-bromo-1-(quinolin-6-yl)-1H-pyrazolo[3,4-d]pyrimidin-6-yl)amino)-N-(3-methyltetrahydrofuran-3-yl)cyclopentane-1-carboxamide], with 25 to 200 nM; and `COCCNS(=O)(=O)[C@H]1CC[C@@H](Nc2ncc3c(Br)nn(-c4ccc(-c5nnc(C)s5)cc4)c3n2)C1` [(1S,3R)-3-[[3-bromo-1-[4-(5-methyl-1,3,4-thiadiazol-2-yl)phenyl]pyrazolo[3,4-d]pyrimidin-6-yl]amino]-N-(2-methoxyethyl)cyclopentanesulfonamide], with 25 to 200 nM.
Consider `CNC(=O)[C@]1(CC(F)F)CC[C@@H](Nc2ncc3c(Br)nn(-c4ccc(-c5nnc(C)o5)cc4)c3n2)C1` [(1R,3R)-3-[[3-bromo-1-[4-(5-methyl-1,3,4-oxadiazol-2-yl)phenyl]pyrazolo[3,4-d]pyrimidin-6-yl]amino]-1-(2,2-difluoroethyl)-N-methyl-cyclopentanecarboxamide], for which, under setting [1], the IC50 lay within 25 to 200 nM.
